In brackets after ≈: the same amount, converted by molar mass.
How the values were obtained:
[1] = test system: Murine melanoma B16-F10 cells; assay: In vitro cytotoxicity against B16-F10 cells (neutral red staining, 72 hours); assay type: cell-based; conditions: Mus musculus, 72 hours incubation, read-out: Cytotoxicity (IC50, μg/ml)
Procedure: Murine melanoma B16-F10 cells were grown and maintained at 37° C. under a humidified atmosphere in a 5% CO2 incubator in Eagle's MEM medium (Nissui) containing kanamycin (60 μg/ml), and supplemented with heat inactivated fetal calf serum (10%) and non-essential amino acids (0.6%). Exponentially growing B16-F10 cells were harvested, counted and suspended in the culture medium at a concentration of 2.0×10^4 cells/ml. Twenty-four hours after planting cell suspension (180 μl) into wells of a 96-well microtiter plate, test materials (20 μl) were added to the wells and the plates were incubated for 72 hours. The cytotoxic activity against B16-F10 cells was colorimetrically determined at 540 nm after staining viable cells with neutral red solution.
(§1) For the in vivo expermient, only the maximum T/C% and the dose giving the maximum value are shown.

[2] = test system: murine P388 leukemia; assay: In vivo antitumor activity in the lymphocytic leukemia P388 system; parameters: species or system mouse (Female CDF1 mice); conditions: i.p., once on day 1 (Q1D×1), over 125% significant
Procedure: Antitumor activity of representative compounds of the present invention was tested in the lymphocytic leukemia P388 system. Female CDF1 mice were inoculated intraperitoneally with 1.0×10^6 of leukemia cells per mouse (day 0) and test materials were intraperitoneally administered to mice once on day 1 (Q1D×1). […] The median survival time (MST) of each test group was recorded, and antitumor activity was expressed by means of T/C% values calculated by the following equation:
T/C%=(MST treated.div.MST control)×100
The T/C% values of over 125% are considered significant antitumor activity.
as §1

[3] = 60 mg/kg/Day (dose giving maximum T/C%)
[4] = 120 mg/kg/Day (dose giving maximum T/C%)

| SMILES | IC50 [1] | Anti-P388 T/C % (maximum; MST treated/MST control ×100) [2, 3] | Anti-P388 T/C % (maximum; MST treated/MST control ×100) [2, 4] | Anti-P388 T/C % (maximum; MST treated/MST control ×100) ([2]; 30 mg/kg/Day (dose giving maximum T/C%)) | Anti-P388 T/C % (maximum; MST treated/MST control ×100) ([2]; 10 mg/kg/Day (dose giving maximum T/C%)) |
| --- | --- | --- | --- | --- | --- |
| COc1cc([C@@H]2c3cc4c(cc3[C@@H](O[C@@H]3O[C@@H]5COC(C)O[C@H]5[C@@H](O)[C@H]3O)[C@H]3COC(=O)[C@H]23)OCO4)cc(OC)c1O (stereo partly drawn) [Example 1, 4'-Demethyl-4-O-(4,6-O-ethylidene-β-D-allopyranosyl)epidpodophyllotoxin] | 2.1 µg/mL (≈ 3.57 µM) | 280% | – | – | – |
| COc1cc([C@@H]2c3cc4c(cc3[C@@H](O[C@@H]3O[C@H]([C@H]5COC(C)O5)[C@@H](O)[C@H]3O)[C@H]3COC(=O)[C@H]23)OCO4)cc(OC)c1O (single isomer, unassigned) [Example 2 (epimer I), 4'-demethyl-4-O-(5,6-O-ethylidene-β-D-allofuranosyl)epipodophyllotoxin] | > 100 µg/mL | – | 150% | – | – |
| COc1cc([C@@H]2c3cc4c(cc3[C@@H](O[C@@H]3O[C@H]([C@H]5COC(C)O5)[C@@H](O)[C@H]3O)[C@H]3COC(=O)[C@H]23)OCO4)cc(OC)c1O (single isomer, unassigned) [Example 2 (epimer II), 4'-demethyl-4-O-(5,6-O-ethylidene-β-D-allofuranosyl)epipodophyllotoxin] | – | 140% | – | – | – |
| COc1cc([C@@H]2c3cc4c(cc3[C@@H](O[C@@H]3O[C@@H]5CO[C@@H](C)O[C@H]5[C@H](O)[C@H]3O)[C@H]3COC(=O)[C@H]23)OCO4)cc(OC)c1O [Etoposide, reference compound] | 0.21 µg/mL (≈ 0.357 µM) | – | 288% | – | – |
| COc1cc([C@@H]2c3cc4c(cc3[C@@H](O[C@@H]3O[C@@H]5COC(C)O[C@H]5[C@H](O)[C@@H]3O)[C@H]3COC(=O)[C@H]23)OCO4)cc(OC)c1O (stereo partly drawn) [Example 3, 4'-Demethyl-4-O-(4.6-O-ethylidene-β-D-mannopyranosyl)epipodophyllotoxin] | 0.12 µg/mL (≈ 0.204 µM) | – | – | 186% | – |
| COc1cc([C@@H]2c3cc4c(cc3[C@@H](O[C@H]3O[C@@H]5COC(C)O[C@H]5[C@H](O)[C@@H]3O)[C@H]3COC(=O)[C@H]23)OCO4)cc(OC)c1O (stereo partly drawn) [Example 4, 4'-demethyl-4-O-(4,6-O-ethylidene-α-D-mannopyranosyl)epipodophyllotoxin] | 19 µg/mL (≈ 32.3 µM) | – | – | – | 124% |
